Test results reported in PMC12494099, “Discovery and Characterization of Novel IKZF1/3 Glue Degraders against Multiple Hematological Cancer Cell Lines” (Oncology Research, 2025).
Read-outs that look alike come from different tables or passages of the source.

Experiment: Pharmacokinetic study in vivo
Parameters: species or system BALB/c mice
Conditions: mice; for MRT inf: read-out: MRT0-inf
Description: BALB/c mice weighing 19–21 g were procured from Beijing Vital River Laboratory Animal Technology Co., Ltd. (Beijing, China). The animals were housed under conditions of constant temperature and humidity, with a 12-h light-dark cycle for lighting. The mice had free access to water and food but were fasted for 12 h before intragastric administration. This study has been approved by the Animal Care and Use Committee Ethics Committee of the National Beijing Center for Drug Safety Evaluation and Research; the approval number is IACUC-DWZX-2024-P557.
Six male BALB/c mice were randomly assigned to two groups, with three mice in each group. MGD-C9 was administered via intravenous (i.v., 2 mg/kg in a solution of 10% DMSO, 2% Tween 80% and 88% H2O) and oral (p.o., 50 mg/kg in the same vehicle) routes to assess its pharmacokinetic (PK) characteristics. Blood samples (0.05 mL) were collected into heparinized tubes at pre-dose and at 0, 0.0833-, 0.25-, 0.5-, 1-, 2-, 4-, 6-, 8-, and 24 h post-administration. Plasma samples were obtained by centrifuging the blood for 10 min.
The plasma supernatant was then stored at −80°C and thawed at room temperature for subsequent analysis. For preparation, 10 μL of plasma was mixed with 10 μL working solution, followed by protein precipitation with 50 μL acetonitrile containing propranolol hydrochloride internal standard (50 ng/mL). After vortexing (1 min) and centrifugation (18,800× g, 10 min, 4°C), the supernatant was collected, diluted two-fold with 50% acetonitrile/water (v/v), and mixed. MGD-C9 plasma concentrations were quantified by LC-MS/MS using Analyst 1.5.1 (Applied Biosystem, Shanghai, China).
Automated peak integration was performed for atlas samples. The peak area ratio (sample/internal standard) was used for concentration regression analysis, applying linear regression with 1/X^2 weighting. Pharmacokinetic parameters (AUC, t1/2, MRT) across administration routes, and Cmax/Tmax after oral dosing, were calculated via non-compartmental analysis using WinNonlin v6.3 (Pharsight, Lawrenceville, GA, USA).
Experimental data were presented as “Mean ± SD” (n = 3).

[1] = male, BALB/c, mouse, plasma, iv, 2 mg/kg
[2] = male, BALB/c, mouse, plasma, po, 50 mg/kg

- AUC(0-inf) [1]: 1360 ± 190 ng·h/mL
- Cmax [1]: 3690 ± 713 ng/mL
- half-life [1]: 12 ± 4.2 min
- MRT inf (male, BALB/c, mouse, plasma, iv, i.v., 2 mg/kg): 15.6 ± 7.2 min
- Vd (male, BALB/c, mouse, plasma, iv, i.v., 2 mg/kg, read-out: Vz): 0.42 ± 0.14 L/kg
- bioavailability (male, BALB/c, mouse, plasma, oral, p.o. 50 mg/kg vs i.v. 2 mg/kg, read-out: F (oral bioavailability)): 33.5%
- Tmax [2]: ~30 min
- AUC(0-inf) [2]: 11400 ± 553 ng·h/mL
- Cmax [2]: 5590 ± 222 ng/mL
- half-life [2]: 53.4 ± 13.8 min
- MRT inf (male, BALB/c, mouse, plasma, po, p.o., 50 mg/kg): 90.6 ± 10.2 min
- Vz (p.o., 50 mg/kg): 5.62 ± 1.23 L/kg
Compound: CN1CCN(Cc2cccc(C(=O)NC3CCC(=O)NC3=O)c2F)C(=O)C1 (stereo not drawn) [MGD-C9, N-(2,6-dioxopiperidin-3-yl)-2-fluoro-3-((4-methyl-2-oxopiperazin-1-yl)methyl)benzamide]
